Reference: patent US4198506A, “2-Carboxyalkyl-2,3-dihydro-6-mercapto-s-triazolo[4,3-b]-pyridazin-3-ones” (Bristol-Myers Company, priority 1979, dated 1980)
Values after ≈ are worked out from the molar mass of the structure shown. Values joined by “and” are separate entries in the source; they are usually repeats but may differ in a detail not shown here. Equal entries are not always repeated. Where two headings read alike, the source gives them in different places.

Legend:
E. coli Juhl = assay: In vivo activity (Mice, sc); details: several determinations listed
Text: |In vivo Activity of BB-[…] and Related Compounds (Mice, sc) | (PD50 (mgm./kg.)

Pr. rettgeri = assay: In vitro antibacterial activity (Steers' agar dilution MIC); type: cell-based; details: Providencia rettgeri
Enterob. cloacae = assay: as above; type: cell-based
Pr. morganii = assay: as above; type: cell-based; details: Morganella morganii
Pr. vulgaris = assay: as above; type: cell-based; details: Proteus vulgaris
St. faecalis = assay: as above; type: cell-based; details: Enterococcus faecalis
D. pneumoniae = assay: In vitro activity (geometric mean MIC, serial dilution); type: cell-based; details: Streptococcus pneumoniae; 9 strains; Mueller-Hinton agar, inoculum 10^4 dilution; MIC cutoff 200 mcg./ml.
rabbits = assay: Preliminary nephrotoxicity study; type: in vivo; details: two rabbits, 100 mg./kg. intravenously
Description: A preliminary nephrotoxicity study was carried out by administration of the test compound to a group of two rabbits at 100 mg./kg. intravenously.

Sal. enteritidis = assay: In vitro antibacterial activity (Steers' agar dilution MIC); type: cell-based; details: Salmonella enterica
[1] = tested on: E. coli (Penicillinase +); assay: In vitro activity (geometric mean MIC, serial dilution); type: cell-based; details: Escherichia coli; 7 strains; Mueller-Hinton agar, inoculum 10^4 dilution; MIC cutoff 200 mcg./ml.; read-out: Geometric Mean MIC
[2] = table 2 (BB-S493), Pr. rettgeri A15167
[3] = table 4 (BB-S 525), Pr. rettgeri
[4] = table 2 (BB-S493), Pr. morganii A9553, read-out: MIC
[5] = table 2 (BB-S493), Pr. vulgaris A9436, read-out: MIC
[6] = table 2 (BB-S493), Pr. vulgaris A9699, read-out: MIC
[7] = table 4 (BB-S 525), Pr. vulgaris, 1st line, read-out: MIC
[8] = table 4 (BB-S 525), St. faecalis, read-out: MIC
[9] = table 2 (BB-S493), Sal. enteritidis A9531
[10] = table 4 (BB-S 525), Sal. enteritidis

| Structure (SMILES) | MIC (Pr. rettgeri; [2]) [µg/mL] | MIC (Pr. rettgeri; [3]) [µg/mL] | MIC (Pr. morganii; [4]) [µg/mL] | MIC (Pr. vulgaris; [5]) [µg/mL] | MIC (Pr. vulgaris; [6]) [µg/mL] | MIC (Pr. vulgaris; [7]) [µg/mL] | MIC (St. faecalis; [8]) [µg/mL] | MIC (D. pneumoniae) [µg/mL] | MIC (Sal. enteritidis; [9]) [µg/mL] | MIC (Sal. enteritidis; [10]) [µg/mL] | MIC [1] [µg/mL] | also measured |
| --- | --- | --- | --- | --- | --- | --- | --- | --- | --- | --- | --- | --- |
| CNCc1ccccc1CC(=O)N[C@@H]1C(=O)N2C(C(=O)O)=C(CSc3ccc4nn(CC(=O)O)c(=O)n4n3)CS[C@H]12 [BB-S479, 7-[o-(Methylaminomethyl)phenylacetamido]-3-(2-carboxymethyl-2,3-dihydro-s-triazolo[4,3-b]pyridazin-3-on-6-ylthiomethyl)-3-cephem-4-carboxylic Acid] | 0.1 (≈ 0.167 µM) | 0.8 (≈ 1.33 µM) | > 100 | 0.1 (≈ 0.167 µM) | 0.8 (≈ 1.33 µM) | 0.2 (≈ 0.334 µM) | > 100 | 0.04 (≈ 0.0667 µM) | 0.05 (≈ 0.0834 µM) | 0.1 (≈ 0.167 µM) | 2.6 (≈ 4.34 µM) | ED50 (E. coli Juhl; Escherichia coli, read-out: PD50): 0.19 mg/kg; PD50 (E. coli Juhl): 0.15 mgm./kg. and 0.12 mgm./kg.; MIC (Enterob. cloacae; table 2 (BB-S493), Enterob. cloacae A9656, read-out: MIC): 1.6 µg/mL (≈ 2.67 µM); MIC (Enterob. cloacae; table 4 (BB-S 525), Enterob. cloacae, read-out: MIC): 3.1 µg/mL (≈ 5.17 µM); MIC (Pr. morganii; table 2 (BB-S493), Pr. morganii A20031, read-out: MIC): 0.1 µg/mL (≈ 0.167 µM); MIC (Pr. morganii; table 4 (BB-S 525), Pr. morganii, 1st line, read-out: MIC): > 100 µg/mL; MIC (Pr. morganii; table 4 (BB-S 525), Pr. morganii, 2nd line, read-out: MIC): 0.2 µg/mL (≈ 0.334 µM); MIC (Pr. vulgaris; table 4 (BB-S 525), Pr. vulgaris, 2nd line, read-out: MIC): 0.8 µg/mL (≈ 1.33 µM); MIC (St. faecalis; table 2 (BB-S493), St. faecalis A9536, read-out: MIC): 100 µg/mL (≈ 167 µM); nephrotoxic potential (rabbits): little nephrotoxic potential |
| Cn1nnnc1SCC1=C(C(=O)O)N2C(=O)[C@@H](NC(=O)[C@H](O)c3ccccc3)[C@H]2SC1 [Cefamandole, reference compound] | 0.1 (≈ 0.216 µM) | 0.1 (≈ 0.216 µM) | > 100 | 0.2 (≈ 0.432 µM) | 25 (≈ 54.1 µM) | 0.2 (≈ 0.432 µM) | 100 (≈ 216 µM) | 0.2 (≈ 0.432 µM) | 0.1 (≈ 0.216 µM) | 0.1 (≈ 0.216 µM) | 5.7 (≈ 12.3 µM) | MIC (Enterob. cloacae; table 2 (BB-S493), Enterob. cloacae A9656): 3.1 µg/mL (≈ 6.7 µM); MIC (Enterob. cloacae; table 4 (BB-S 525), Enterob. cloacae): 1.6 µg/mL (≈ 3.46 µM); MIC (Pr. morganii; table 2 (BB-S493), Pr. morganii A20031): 0.8 µg/mL (≈ 1.73 µM); MIC (Pr. morganii; table 4 (BB-S 525), Pr. morganii, 1st line): 3.1 µg/mL (≈ 6.7 µM); MIC (Pr. morganii; table 4 (BB-S 525), Pr. morganii, 2nd line): 0.8 µg/mL (≈ 1.73 µM); MIC (Pr. vulgaris): 50 µg/mL (≈ 108 µM); MIC (St. faecalis): 50 µg/mL (≈ 108 µM) |
